Holding throughout (assay): Growth inhibition assay for HCC lines
What all share (type): cell-based

Assay [1] has as its system Hep3B. As to conditions: 96 hours, DMEM + 10% FBS. The procedure: (§1) Growth Inhibition Assay for HCC and NHL Lines. The seeding density for each cell line was optimized to ensure assay linearity in 384-well plates.
(§2) Compound 1 was dissolved in dimethyl sulfoxide (DMSO) to prepare a 10 mM stock solution. A serial titration was performed to produce a working concentration range of […] to 10 mM. Aliquots to produce final concentrations of 1.5 nM to 10 μM were spotted via an acoustic dispenser (EDC ATS-100) into an empty 384-well plate. Compound 1 was spotted in a 10-point serial dilution fashion (3-fold dilution) in duplicate within the plate. The DMSO concentration was kept constant for a final assay concentration of 0.1% DMSO. Plates were replicated for use with different cell lines and testing periods. After compound plate replication, all plates were sealed (Agilent ThermoLoc) and stored at −20° C. for up to 1 month. […] When ready for testing, plates were removed from the freezer, thawed, and unsealed just prior to the addition of the test cells. Prior to testing, cells were grown and expanded in culture flasks to provide sufficient amounts of starting material. Cells were then diluted to the appropriate densities and added directly to the compound-spotted 384-well plates. Cells were allowed to grow for 96 hours at 37° C./5% CO2. At the time when compound was added (t0), initial cell number was assessed via a viability assay (Cell Titer-Glo) by quantifying the level of luminescence generated by ATP present in viable cells. After 96 hours, cell viability of compound-treated cells was assessed via Cell Titer-Glo and luminescence measurement. Cell lines were assayed for growth inhibition by Compound 1 in at least 3 independent tests. A control cell line (the lung tumor cell line, A549) was included in each of the assays. The compound response against this control cell line was monitored closely to enable comparison of the data generated through the assay period. All data were normalized and presented as a percentage of the DMSO-treated cells. Results were then expressed as a GI50 value. The GI50 value corrects for the cell count at time zero. In addition, the IC50 value of Compound 1 for each cell line was calculated.

For assay [2], the system named is HepG2. As to conditions: HepG2, 96 hours, DMEM + 10% FBS. The procedure: as §1, §2
In assay [3] the test system is HuH-7. As to conditions: HuH-7, 96 hours, DMEM + 10% FBS. The protocol: as §1, §2
The subject of assay [4] is PLC-PRF-5. As to conditions: PLC-PRF-5, 96 hours, DMEM + 10% FBS. The protocol:
as §1, §2

Assay [5] concerns SK-HEP-1. As to conditions: SK-HEP-1, 96 hours, DMEM + 10% FBS. The protocol:
as §1, §2

The test system of assay [6] is SNU-182. As to conditions: SNU-182, 96 hours, RPMI 1640 + 10% FBS. The protocol: as §1, §2
In assay [7] the test system is SNU-387. As to conditions: SNU-387, 96 hours, RPMI 1640 + 10% FBS. The protocol:
as §1, §2

Assay [8] has as its system SNU-398. As to conditions: SNU-398, 96 hours, RPMI 1640 + 10% FBS. The procedure:
as §1, §2

The test system of assay [9] is SNU-423. As to conditions: SNU-423, 96 hours, RPMI 1640 + 10% FBS. The procedure: as §1, §2
Assay [10] relates to SNU-449. Conditions: SNU-449, 96 hours, RPMI 1640 + 10% FBS. The protocol: as §1, §2
In assay [11] the test system is SNU-475. As to conditions: SNU-475, 96 hours, RPMI 1640 + 10% FBS. The protocol: as §1, §2

Each structure is given as a SMILES string.

One may read the GI50 as the concentration at which growth is held to half of that of the control. The IC50 is the midpoint of a concentration-inhibition curve.

For `CO[C@H]1CC[C@H](N2C(=O)CNc3ncc(-c4ccc(C(C)(C)O)nc4)nc32)CC1` [Compound 1, 7-(6-(2-hydroxypropan-2-yl)pyridin-3-yl)-1-((1r,4r)-4-methoxycyclohexyl)-3,4-dihydropyrazino-[2,3-b]pyrazin-2(1H)-one], the GI50 was determined as 260 ± 70 nM in assay [1]; 240 ± 60 nM in assay [2]; 70 ± 30 nM in assay [3]; 310 ± 70 nM in [4]; 270 ± 40 nM in assay [5]; 80 ± 30 nM in assay [6]. For the same molecule, the GI50 in [7] stood at 1260 ± 470 nM; in assay [8], 280 ± 60 nM; in [9] it was 300 ± 50 nM; in assay [10] it was 370 ± 70 nM; in assay [11] it was 460 ± 90 nM. Further, the IC50 in [1] is 340 ± 110 nM; in assay [2], 320 ± 130 nM; in assay [3] it was 100 ± 40 nM; in [4], 430 ± 70 nM; in [5], 330 ± 70 nM; in assay [6], 260 ± 100 nM. Besides, the IC50 turned out to be 2470 ± 930 nM in assay [7]; 290 ± 50 nM in assay [8]; 480 ± 60 nM in assay [9]; 480 ± 110 nM in assay [10]; 690 ± 140 nM in [11].

(Values after patent US9493466B2, “Treatment of cancer with TOR kinase inhibitors” (Signal Pharmaceuticals, LLC, priority 2011, dated 2016).)
